Columns and labels:
[1] = test system: SKOV3 cells and/or UMRC3 cells; assay: xCELLigence impedance assay, thawed iC9/CD27 CAR/IL-15-NK cells; format: cell-based; details: pre-cryopreservation treatment at 1 micromolar; E:T 2:1; vs no pre-treatment
Procedure: The ovarian cancer cell line (SKOV3) (FIG. 16A) and renal cell carcinoma cell line (UMRC3) (FIG. 16B), were grown in 96 well RTCA E-Plates overnight.

[2] = test system: CAR-NK cells; assay: Post-thaw CAR expression of CAR-NK cells by flow cytometry; format: cell-based, human
Procedure: (§1) CAR-NK cells were isolated, pre-activated, expanded, and treated with Dasatinib for 24, 48, or 72 hours prior to cryopreservation as described in Example 1 (or not treated with Dasatinib as control). Immediately prior to cryopreservation, CAR-NK cells were washed to remove the deactivating agent.

[3] = test system: A375 cells and/or Saos-2 cells; assay: xCELLigence impedance assay, thawed NYESO-TCR-NK cells; details: pre-cryopreservation treatment at 1 micromolar; E:T 2:1; vs no pre-treatment
Procedure: As shown in FIGS. 17A-17C, addition of various tyrosine kinase inhibitors prior to freezing enhanced the antitumor cytotoxicity of TCR-NK cells post-thaw against solid cancer, as determined by xCELLigence impedance assays. The melanoma cell line (A375) (FIG. 17A) and osteosarcoma cell line (Saos-2) (FIG. 17B), were grown in 96 well RTCA E-Plates overnight. The next day, frozen NYESO targeting TCR-NK cells that were not treated or were treated pre-cryopreservation with a tyrosine kinase inhibitor (Dasatinib, Bosutinib, Nilotinib, or Saracatinib; at a final concentration of 1 micromolar) were thawed and added at 2:1 effector to target (E:T) ratio. The cancer cell growth was measured continuously over time (X axis) by the xCELLigence device and represented as normalized cell index (Y axis).

[4] = test system: U266 cells; assay: Chromium release assay, thawed NYESO-TCR-NK cells; format: cell-based; details: pre-cryopreservation treatment; E:T 2:1, 1:1, 0.5:1, 0.25:1; vs no pre-treatment
Procedure: After four hours, chromium release was measured, which corresponded to cancer cell death.

[5] = test system: CAR-NK cells; assay: Post-thaw viability of CAR-NK cells by flow cytometry (Annexin V / cell death marker); format: cell-based, human
Procedure: as §1

[6] = 24 h treatment prior to cryopreservation
[7] = 48 h treatment prior to cryopreservation

Structure (SMILES) | cytotoxicity of thawed CAR-NK cells (normalized cell index) [1] | CAR Mean Fluorescence Intensity (MFI) [2, 6] | percentage of cells that are CAR positive [2, 6] | CAR Mean Fluorescence Intensity (MFI) [2, 7] | percentage of cells that are CAR positive [2, 7] | cytotoxicity of thawed TCR-NK cells (normalized cell index) [3] | cytotoxicity of thawed TCR-NK cells (chromium release after four hours) [4] | living cell percentage [5, 6] | living cell percentage [5, 7] | living cell percentage ([5]; 72 h treatment prior to cryopreservation)
CN1CCN(CCOc2cc(OC3CCOCC3)c3c(Nc4c(Cl)ccc5c4OCO5)ncnc3c2)CC1 [Saracatinib] | increased cytotoxicity | – | – | – | – | – | – | – | – | –
Cc1nc(Nc2ncc(C(=O)Nc3c(C)cccc3Cl)s2)cc(N2CCN(CCO)CC2)n1 [Dasatinib] | increased cytotoxicity | 7987 | 64.9% | 4620 | 55.4% | increased cytotoxicity | increased cytotoxicity | 61.7% | 68.8% | 70.9%
Cc1cn(-c2cc(NC(=O)c3ccc(C)c(Nc4nccc(-c5cccnc5)n4)c3)cc(C(F)(F)F)c2)cn1 [Nilotinib] | increased cytotoxicity | – | – | – | – | increased cytotoxicity | – | – | – | –
COc1cc(Nc2c(C#N)cnc3cc(OCCCN4CCN(C)CC4)c(OC)cc23)c(Cl)cc1Cl [Bosutinib] | – | – | – | – | – | increased cytotoxicity | – | – | – | –
